Like-named read-outs stand apart in the source and are kept apart here.
Tests used:
human CB2 receptor = molecular target: T1, human CB2 receptor (Homo sapiens, UniProt P34972); assay: Binding assay, cannabinoid CB2 receptor, [3H]-CP-55,940 displacement; details: for inhibition at 1 µM / inhibition at 0.2 µM: read-out: Cannabinoid CB2 Receptor Binding, percent inhibition; for IC50: membranes of SK-N-MC cells expressing human CB2, calculated by linear regression from percent inhibition at various concentrations
T1 construct: expressed in transfected cells; host or cells: SK-N-MC cells, stably transfected with pcDNA3 CB-2 (human); semi-purified membrane pellet
T1 sequence (P34972 whole entry): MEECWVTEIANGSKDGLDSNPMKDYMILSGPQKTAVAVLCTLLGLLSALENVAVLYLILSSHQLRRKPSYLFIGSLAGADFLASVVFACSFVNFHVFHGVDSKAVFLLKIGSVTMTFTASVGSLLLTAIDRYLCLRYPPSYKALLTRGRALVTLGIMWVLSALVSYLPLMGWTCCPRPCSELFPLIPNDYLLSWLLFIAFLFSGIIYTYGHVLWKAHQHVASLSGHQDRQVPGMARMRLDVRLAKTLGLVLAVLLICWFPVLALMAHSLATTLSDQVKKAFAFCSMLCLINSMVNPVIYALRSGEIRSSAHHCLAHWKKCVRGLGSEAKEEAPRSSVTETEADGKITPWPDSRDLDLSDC
Description: (§1) The human CB1 and CB2 receptors were stably expressed in SK-N-MC cells transfected with pcDNA3 CB-1 (human) or pcDNA3 CB-2 (human). The cells were grown in T-180 cell culture flasks under standard cell culture conditions at 37° C. in a 5% CO2 atmosphere. The cells were harvested by trysinization and homogenized in a homogenization buffer (10 mM Tris, 0.2 mM MgCl2, 5 mM KCl, with protease inhibitors aprotinin, leupeptin, pepstatin A and bacitracin) and centrifuged (2000 g). The supernatant was then centrifuged in 2M sucrose (31,300 g) to produce a semi-purified membrane pellet. The pellet was resuspended in homogenization and stored at −80° C.
(§2) On the day of the assay, the pellet was thawed on ice and diluted in assay buffer (50 mM Tris-HCl, 5 mM MgCl2, 2.5 mM EDTA, 0.5 mg/mL fatty acid free bovine serum albumin, pH 7.5). The diluted membrane pellet was added with buffer, either a test compound or vehicle standard and the radioligand [H]^3+-CP-55,940 (0.2 nM) to the wells of a 96-well polypropylene plate. Non-specific binding was measured in wells containing WIN 55,212 (10 uM). The plate was covered and incubated for 90 minutes at 30° C. The contents were then aspirated onto a Packard Unifilter GF/C filter bottom plate prewet with 0.5% polyethyleneimine. The wells of the polypropylene plate were rinsed and aspirated seven times with a 0.9% saline-0.5% Tween 20 solution. The Unifilter plate was dried, scintillation cocktail was added to each well and the counts representing binding were quantitated in a TopCount scintillation counter.
(§3) For compounds tested, an IC50 binding value was obtained from percent inhibition studies in which various test concentrations were used. The binding value was calculated by linear regression.
(§4) For compounds without an IC50 binding value, the percent inhibition (%) was obtained at a test concentration of ^a1.0 μM or ^b0.2 μM.

human CB1 receptor = molecular target: T2, human CB1 receptor (Homo sapiens, UniProt P21554); assay: Binding assay, cannabinoid CB1 receptor, [3H]-CP-55,940 displacement
T2 construct: expressed in transfected cells; host or cells: SK-N-MC cells, stably transfected with pcDNA3 CB-1 (human); semi-purified membrane pellet
T2 sequence (P21554 whole entry): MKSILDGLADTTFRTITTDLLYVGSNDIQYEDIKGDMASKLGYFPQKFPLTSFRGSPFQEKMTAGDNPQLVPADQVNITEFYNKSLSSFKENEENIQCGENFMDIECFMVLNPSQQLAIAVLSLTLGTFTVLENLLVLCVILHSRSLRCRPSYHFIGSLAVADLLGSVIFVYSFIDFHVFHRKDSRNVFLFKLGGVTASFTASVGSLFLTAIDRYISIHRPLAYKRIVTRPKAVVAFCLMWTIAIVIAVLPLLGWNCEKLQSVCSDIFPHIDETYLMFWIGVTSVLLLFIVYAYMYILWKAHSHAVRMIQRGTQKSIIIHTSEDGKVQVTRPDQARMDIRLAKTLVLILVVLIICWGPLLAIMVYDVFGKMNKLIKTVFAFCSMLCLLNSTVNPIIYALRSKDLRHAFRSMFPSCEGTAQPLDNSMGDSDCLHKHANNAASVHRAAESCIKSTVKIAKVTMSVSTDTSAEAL
Description: as §1, §2, §3, §4

[1] = membranes of SK-N-MC cells expressing human CB1, calculated by linear regression from percent inhibition at various concentrations, read-out: Cannabinoid CB1 Receptor Binding, IC50 binding value
[2] = read-out: Cannabinoid CB1 Receptor Binding, percent inhibition

IC50 (human CB1 receptor; [1]) | SMILES | inhibition at 1 µM (human CB2 receptor) | IC50 (human CB1 receptor) | also measured
– | CC(=Cc1ccc(Cl)cc1)c1c(C)c(C(=O)N[C@@H](C)C2CCCCC2)nn1-c1ccc(Cl)cc1Cl [Cpd 1, 5-[2-(4-chloro-phenyl)-1-methyl-vinyl]-1-(2,4-dichloro-phenyl)-4-methyl-1H-pyrazole-3-carboxylic acid [(1S)-1-cyclohexyl-ethyl]-amide] | 42% | 20 nM | –
– | CC(=Cc1ccc(Cl)cc1)c1c(C)c(C(=O)N[C@@H](C)c2ccccc2)nn1-c1ccc(Cl)cc1Cl [Cpd 2, 5-[2-(4-chloro-phenyl)-1-methyl-vinyl]-1-(2,4-dichloro-phenyl)-4-methyl-1H-pyrazole-3-carboxylic acid [(1S)-1-phenyl-ethyl]-amide] | 32% | 20 nM | –
– | CC(=Cc1ccc(Cl)cc1)c1c(C)c(C(=O)N[C@@H]2C(C)(C)[C@@H]3CC[C@]2(C)C3)nn1-c1ccc(Cl)cc1Cl [Cpd 3, 5-[2-(4-chloro-phenyl)-1-methyl-vinyl]-1-(2,4-dichloro-phenyl)-4-methyl-1H-pyrazole-3-carboxylic acid [(1R,2S,4R)-1,3,3-trimethyl-bicyclo[2.2.1]hept-2-yl]-amide] | 31% | 50 nM | –
– | CC(=Cc1ccc(Cl)cc1)c1c(C)c(C(=O)NN2CCCCC2)nn1-c1ccc(Cl)cc1Cl [Cpd 4, 5-[2-(4-chloro-phenyl)-1-methyl-vinyl]-1-(2,4-dichloro-phenyl)-4-methyl-1H-pyrazole-3-carboxylic acid piperidin-1-ylamide] | – | 90 nM | IC50 (human CB2 receptor): 1700 nM
360 nM | CC(=Cc1ccc(Cl)cc1)c1c(C)c(C(=O)NN2CCOCC2)nn1-c1ccc(Cl)cc1Cl [Cpd 5, 5-[2-(4-chloro-phenyl)-1-methyl-vinyl]-1-(2,4-dichloro-phenyl)-4-methyl-1H-pyrazole-3-carboxylic acid morpholin-4-ylamide] | – | – | IC50 (human CB2 receptor): 2000 nM
– | CC(=Cc1ccc(Cl)cc1)c1c(C)c(C(=O)N[C@H](C)C2CCCCC2)nn1-c1ccc(Cl)cc1Cl [Cpd 8, 5-[2-(4-chloro-phenyl)-1-methyl-vinyl]-1-(2,4-dichloro-phenyl)-4-methyl-1H-pyrazole-3-carboxylic acid [(1R)-1-cyclohexyl-ethyl]-amide] | 39% | 310 nM | –
– | CC(=Cc1ccc(Cl)cc1)c1c(C)c(C(=O)N[C@H](C)c2ccccc2)nn1-c1ccc(Cl)cc1Cl [Cpd 11, 5-[2-(4-chloro-phenyl)-1-methyl-vinyl]-1-(2,4-dichloro-phenyl)-4-methyl-1H-pyrazole-3-carboxylic acid [(1R)-1-phenyl-ethyl]-amide] | 51% | 340 nM | –
250 nM | CC(=Cc1cccc(Cl)c1)c1c(C)c(C(=O)NN2CCCCC2)nn1-c1ccc(Cl)cc1Cl [Cpd 12, 5-[2-(3-chloro-phenyl)-1-methyl-vinyl]-1-(2,4-dichloro-phenyl)-4-methyl-1H-pyrazole-3-carboxylic acid piperidin-1-ylamide] | – | – | –
– | CC(=Cc1cccc(Cl)c1)c1c(C)c(C(=O)NN2CCOCC2)nn1-c1ccc(Cl)cc1Cl [Cpd 13, 5-[2-(3-chloro-phenyl)-1-methyl-vinyl]-1-(2,4-dichloro-phenyl)-4-methyl-1H-pyrazole-3-carboxylic acid morpholin-4-ylamide] | – | – | inhibition at 1 µM (human CB1 receptor; [2]): 53%
– | CC(=Cc1cccc(Cl)c1)c1c(C)c(C(=O)N[C@@H](C)C2CCCCC2)nn1-c1ccc(Cl)cc1Cl [Cpd 16, 5-[2-(3-chloro-phenyl)-1-methyl-vinyl]-1-(2,4-dichloro-phenyl)-4-methyl-1H-pyrazole-3-carboxylic acid [(1S)-1-cyclohexyl-ethyl]-amide] | – | 330 nM | –
250 nM | CC(=Cc1cccc(Cl)c1)c1c(C)c(C(=O)N[C@@H](C)c2ccccc2)nn1-c1ccc(Cl)cc1Cl [Cpd 17, 5-[2-(3-chloro-phenyl)-1-methyl-vinyl]-1-(2,4-dichloro-phenyl)-4-methyl-1H-pyrazole-3-carboxylic acid [(1S)-1-phenyl-ethyl]-amide] | – | – | –
– | CC(=Cc1cccc(Cl)c1)c1c(C)c(C(=O)N[C@H](C)C2CCCCC2)nn1-c1ccc(Cl)cc1Cl [Cpd 18, 5-[2-(3-chloro-phenyl)-1-methyl-vinyl]-1-(2,4-dichloro-phenyl)-4-methyl-1H-pyrazole-3-carboxylic acid [(1R)-1-cyclohexyl-ethyl]-amide] | – | 90 nM | –
370 nM | CC(=Cc1cccc(Cl)c1)c1c(C)c(C(=O)N[C@H](C)c2ccccc2)nn1-c1ccc(Cl)cc1Cl [Cpd 19, 5-[2-(3-chloro-phenyl)-1-methyl-vinyl]-1-(2,4-dichloro-phenyl)-4-methyl-1H-pyrazole-3-carboxylic acid [(1R)-1-phenyl-ethyl]-amide] | – | – | –
130 nM | CC(=Cc1ccc(Cl)cc1)c1c(C)c(C(=O)N[C@@H](C)C2CCCCC2)nn1-c1ccc(F)cc1F [Cpd 21, 5-[2-(4-chloro-phenyl)-1-methyl-vinyl]-1-(2,4-difluoro-phenyl)-4-methyl-1H-pyrazole-3-carboxylic acid [(1S)-1-cyclohexyl-ethyl]-amide] | – | – | –
300 nM | CC(=Cc1ccc(Cl)cc1)c1c(C)c(C(=O)N[C@H](C)c2ccccc2)nn1-c1ccc(F)cc1F [Cpd 23, 5-[2-(4-chloro-phenyl)-1-methyl-vinyl]-1-(2,4-difluoro-phenyl)-4-methyl-1H-pyrazole-3-carboxylic acid [(1R)-1-phenyl-ethyl]-amide] | – | – | –
280 nM | CC(=Cc1ccc(Cl)cc1)c1c(C)c(C(=O)N[C@H](C)C2CCCCC2)nn1-c1ccc(F)cc1F [Cpd 24, 5-[2-(4-chloro-phenyl)-1-methyl-vinyl]-1-(2,4-difluoro-phenyl)-4-methyl-1H-pyrazole-3-carboxylic acid [(1R)-1-cyclohexyl-ethyl]-amide] | – | – | –
– | CNC(=O)c1nn(-c2ccc(Cl)cc2Cl)c(C(C)=Cc2ccc(Cl)cc2)c1C [Cpd 27, 5-[2-(4-chloro-phenyl)-1-methyl-vinyl]-1-(2,4-dichloro-phenyl)-4-methyl-1H-pyrazole-3-carboxylic acid methylamide] | – | – | inhibition at 0.2 µM (human CB2 receptor): 18%; inhibition at 0.2 µM (human CB1 receptor; [2]): 11%
– | CC[C@@H](C)NC(=O)c1nn(-c2ccc(Cl)cc2Cl)c(C(C)=Cc2ccc(Cl)cc2)c1C [Cpd 28, 5-[2-(4-chloro-phenyl)-1-methyl-vinyl]-1-(2,4-dichloro-phenyl)-4-methyl-1H-pyrazole-3-carboxylic acid [(R)-sec-butyl]-amide] | – | 70 nM | inhibition at 0.2 µM (human CB2 receptor): 21%
– | CC[C@H](C)NC(=O)c1nn(-c2ccc(Cl)cc2Cl)c(C(C)=Cc2ccc(Cl)cc2)c1C [Cpd 29, 5-[2-(4-chloro-phenyl)-1-methyl-vinyl]-1-(2,4-dichloro-phenyl)-4-methyl-1H-pyrazole-3-carboxylic acid [(S)-sec-butyl]-amide] | – | – | inhibition at 0.2 µM (human CB2 receptor): 9%; inhibition at 0.2 µM (human CB1 receptor; [2]): 52%

SMILES | IC50 (human CB1 receptor; [1]) | inhibition at 1 µM (human CB2 receptor) | IC50 (human CB1 receptor) | also measured
CC(=Cc1ccc(Cl)cc1)c1c(C)c(C(=O)NC2CCCCC2)nn1-c1ccc(Cl)cc1Cl [Cpd 6, 5-[2-(4-chloro-phenyl)-1-methyl-vinyl]-1-(2,4-dichloro-phenyl)-4-methyl-1H-pyrazole-3-carboxylic acid cyclohexylamide] | 130 nM | 40% | – | –
CC(=Cc1ccc(Cl)cc1)c1c(C)c(C(=O)NC2CCCCC2C)nn1-c1ccc(Cl)cc1Cl (stereo not shown) [Cpd 7, 5-[2-(4-chloro-phenyl)-1-methyl-vinyl]-1-(2,4-dichloro-phenyl)-4-methyl-1H-pyrazole-3-carboxylic acid (2-methyl-cyclohexyl)-amide] | 110 nM | 55% | – | –
CC(=Cc1ccc(Cl)cc1)c1c(C)c(C(=O)NCC2CCCCC2)nn1-c1ccc(Cl)cc1Cl [Cpd 9, 5-[2-(4-chloro-phenyl)-1-methyl-vinyl]-1-(2,4-dichloro-phenyl)-4-methyl-1H-pyrazole-3-carboxylic acid cyclohexylmethyl-amide] | 370 nM | 49% | – | –
CC(=Cc1ccc(Cl)cc1)c1c(C)c(C(=O)Nc2ccccc2)nn1-c1ccc(Cl)cc1Cl [Cpd 10, 5-[2-(4-chloro-phenyl)-1-methyl-vinyl]-1-(2,4-dichloro-phenyl)-4-methyl-1H-pyrazole-3-carboxylic acid phenylamide] | 600 nM | 46% | – | –
